From patent publication US7612056B2, “Substituted diaza-spiro-[4.5]-decane derivatives and their use as neurokinin antagonists” (Jenssen Pharmaceutica N.V., priority 2005, dated 2009)
Values belong to the molecule of their own block, whether it stands above or below them.

Columns and labels:
[1] = target: T1, NK3 (Homo sapiens, UniProt P29371); assay: Signal transduction (ST), intracellular Ca++ (FLIPR), NK3; type: cell-based; conditions: antagonist, Ca++ transient peak, read-out: pIC50 NK3 (converted)
T1 sequence (P29371 1-465): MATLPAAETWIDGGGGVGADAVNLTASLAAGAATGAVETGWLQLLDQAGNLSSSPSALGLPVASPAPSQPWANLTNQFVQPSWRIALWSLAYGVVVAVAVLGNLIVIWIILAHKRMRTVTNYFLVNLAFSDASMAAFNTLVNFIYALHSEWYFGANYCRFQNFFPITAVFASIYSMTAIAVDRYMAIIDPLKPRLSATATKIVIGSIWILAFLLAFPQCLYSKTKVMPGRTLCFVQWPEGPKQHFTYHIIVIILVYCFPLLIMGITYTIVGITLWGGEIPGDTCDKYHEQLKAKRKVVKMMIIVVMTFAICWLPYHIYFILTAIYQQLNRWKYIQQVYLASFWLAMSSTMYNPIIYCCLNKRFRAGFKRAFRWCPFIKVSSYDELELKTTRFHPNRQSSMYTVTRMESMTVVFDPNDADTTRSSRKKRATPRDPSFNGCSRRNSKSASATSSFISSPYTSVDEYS

[2] = target: NK1 (Homo sapiens, UniProt P25103); assay: Signal transduction (ST), intracellular Ca++ (FLIPR), NK1; type: cell-based; conditions: antagonist, Ca++ transient peak, read-out: pIC50 NK1 (converted)
Experimental: This test evaluates in vitro functional NK1 antagonistic activity. For the measurements of intracellular Ca^++ concentrations the cells were grown on 96-well (black wall/transparent bottom) plates from Costar for 2 days until they reached confluence. The cells were loaded with 2 μM Fluo3 in DMEM containing 0.1% BSA and 2.5 mM probenecid for 1 h at 37° C. They were washed 3× with a Krebs buffer (140 mM NaCl, 1 mM MgCl2×6H2O, 5 mM KCl, 10 mM glucose, 5 mM HEPES; 1.25 mM CaCl2; pH 7.4) containing 2.5 mM probenecid and 0.1% BSA (Ca^++-buffer). The cells were preincubated with a concentration range of antagonists for 20 min at RT and Ca^++-signals after addition of the agonists were measured in a Fluorescence Image Plate Reader (FLIPR from Molecular Devices, Crawley, England). The peak of the Ca^++-transient was considered as the relevant signal and the mean values of corresponding wells were analysed as described below.
The sigmoidal dose response curves were analysed by computerised curve-fitting, using the GraphPad Program. The EC50-value of a compound is the effective dose showing 50% of maximal effect. For mean curves the response to the agonist with the highest potency was normalised to 100%. For antagonist responses the IC50-value was calculated using non-linear regression. […]

[3] = target: T2, NK2 (Homo sapiens, UniProt P21452); assay: Signal transduction (ST), intracellular Ca++ (FLIPR), NK2; type: cell-based; conditions: antagonist, Ca++ transient peak, read-out: pIC50 NK2 (converted)
T2 sequence (P21452 1-398): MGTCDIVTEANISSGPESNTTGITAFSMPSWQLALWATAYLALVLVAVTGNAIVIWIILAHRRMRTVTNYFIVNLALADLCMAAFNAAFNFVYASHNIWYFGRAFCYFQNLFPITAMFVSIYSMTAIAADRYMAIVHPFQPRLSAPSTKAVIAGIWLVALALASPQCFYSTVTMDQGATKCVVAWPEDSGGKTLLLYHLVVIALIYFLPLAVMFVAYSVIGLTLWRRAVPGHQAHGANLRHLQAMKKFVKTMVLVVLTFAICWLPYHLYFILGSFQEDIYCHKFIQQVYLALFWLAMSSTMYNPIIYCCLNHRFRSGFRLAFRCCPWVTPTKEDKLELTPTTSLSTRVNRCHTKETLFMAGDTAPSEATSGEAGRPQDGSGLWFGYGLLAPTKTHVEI

Chain of NK1 (P25103 whole entry): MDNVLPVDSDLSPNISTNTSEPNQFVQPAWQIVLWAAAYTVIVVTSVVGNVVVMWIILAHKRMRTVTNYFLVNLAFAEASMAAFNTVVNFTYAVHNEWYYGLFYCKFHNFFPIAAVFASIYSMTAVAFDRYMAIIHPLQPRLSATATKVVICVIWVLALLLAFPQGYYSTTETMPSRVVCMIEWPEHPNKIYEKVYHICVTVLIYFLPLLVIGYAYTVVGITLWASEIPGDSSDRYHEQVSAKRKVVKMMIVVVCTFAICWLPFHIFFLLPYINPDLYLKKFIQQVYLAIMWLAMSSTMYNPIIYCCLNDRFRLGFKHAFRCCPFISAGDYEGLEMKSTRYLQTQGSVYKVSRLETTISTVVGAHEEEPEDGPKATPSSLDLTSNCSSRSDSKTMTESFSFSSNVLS

- IC50 [1]: > 10 µM
- IC50 [2]: 0.234 µM
- IC50 [3]: 3.63 µM
SMILES: O=C(c1cc(C(F)(F)F)cc(C(F)(F)F)c1)N1CC[C@H](N2CCCC3(CCCN3C(=O)c3ccoc3)C2)C[C@H]1Cc1ccccc1 (stereo partly drawn) [Compound 48]

- IC50 [1]: > 10 µM
- melting point: 152 °C
- IC50 [2]: 0.347 µM
- IC50 [3]: > 10 µM
SMILES: O=C1CC2(CCN([C@H]3CCN(C(=O)c4cc(C(F)(F)F)cc(C(F)(F)F)c4)[C@H](Cc4ccccc4)C3)CC2)CN1 [Compound 21]

- IC50 [1]: 3.31 µM
- IC50 [2]: 0.178 µM
- IC50 [3]: 7.59 µM
SMILES: O=C(c1ccoc1)N1CCC2(CCN(C3CCN(C(=O)c4cc(C(F)(F)F)cc(C(F)(F)F)c4)C(Cc4ccccc4)C3)CC2)C1 (stereo not drawn) [Compound 7]

- IC50 [1]: 8.13 µM
- IC50 [2]: 0.117 µM
- IC50 [3]: 1.91 µM
SMILES: O=C1CC2(CCN([C@@H]3CCN(C(=O)c4cc(C(F)(F)F)cc(C(F)(F)F)c4)[C@H](Cc4ccccc4)C3)CC2)CN1Cc1ccoc1 [Compound 27]

- IC50 [1]: 6.92 µM
- IC50 [2]: 0.0316 µM
- IC50 [3]: 5.5 µM
SMILES: O=C1CC2(CCN(C3CCN(C(=O)c4cc(C(F)(F)F)cc(C(F)(F)F)c4)C(Cc4ccccc4)C3)CC2)CN1CC1CCCO1 (stereo not drawn) [Compound 25]

- IC50 [1]: > 10 µM
- IC50 [2]: 0.135 µM
- IC50 [3]: > 10 µM
SMILES: CS(=O)(=O)N1CC2(CCN([C@H]3CCN(C(=O)c4cc(C(F)(F)F)cc(C(F)(F)F)c4)[C@H](Cc4ccccc4)C3)CC2)c2ccccc21 [Compound 39]

- IC50 [1]: > 10 µM
- IC50 [2]: 0.0537 µM
- IC50 [3]: 3.98 µM
SMILES: O=C1CC2(CCN([C@H]3CCN(C(=O)c4cc(C(F)(F)F)cc(C(F)(F)F)c4)[C@H](Cc4ccccc4)C3)CC2)CN1Cc1ccoc1 [Compound 26]

- IC50 [1]: > 10 µM
- IC50 [2]: 0.302 µM
- IC50 [3]: 0.813 µM
SMILES: O=C1CC2(CCN([C@@H]3CCN(C(=O)c4cc(C(F)(F)F)cc(C(F)(F)F)c4)[C@H](Cc4ccccc4)C3)CC2)CN1Cc1ccsc1 [Compound 30]

- IC50 [1]: > 10 µM
- IC50 [2]: 0.0692 µM
- IC50 [3]: 4.37 µM
SMILES: O=C1CC2(CCN([C@H]3CCN(C(=O)c4cc(C(F)(F)F)cc(C(F)(F)F)c4)[C@H](Cc4ccccc4)C3)CC2)CN1CC1CC1 [Compound 23]

- IC50 [1]: 9.12 µM
- IC50 [2]: 0.191 µM
- IC50 [3]: 9.55 µM
SMILES: O=C1CC2(CCN([C@@H]3CCN(C(=O)c4cc(C(F)(F)F)cc(C(F)(F)F)c4)[C@H](Cc4ccccc4)C3)CC2)CN1Cc1ccccc1F [Compound 33]

- IC50 [1]: 0.977 µM
- IC50 [2]: 0.117 µM
- IC50 [3]: > 10 µM
SMILES: O=C(c1ccoc1)N1CCC2(CCN([C@H]3CCN(C(=O)c4cc(C(F)(F)F)cc(C(F)(F)F)c4)[C@H](Cc4ccccc4)C3)CC2)C1 [Compound 8]

- IC50 [1]: 8.32 µM
- IC50 [2]: 0.269 µM
- IC50 [3]: 10.5 µM
SMILES: Cc1ccccc1CN1CC2(CCN([C@@H]3CCN(C(=O)c4cc(C(F)(F)F)cc(C(F)(F)F)c4)[C@H](Cc4ccccc4)C3)CC2)CC1=O [Compound 32]

- IC50 [1]: 10.2 µM
- IC50 [2]: 0.145 µM
- IC50 [3]: 7.59 µM
SMILES: Cc1ccccc1CN1CC2(CCN([C@H]3CCN(C(=O)c4cc(C(F)(F)F)cc(C(F)(F)F)c4)[C@H](Cc4ccccc4)C3)CC2)CC1=O [Compound 28]

Continued, molecule first:

SMILES: O=C1CC2(CCN([C@H]3CCN(C(=O)c4cc(C(F)(F)F)cc(C(F)(F)F)c4)[C@H](Cc4ccccc4)C3)CC2)CN1Cc1ccccc1Cl [Compound 34]
- IC50 [1]: > 10 µM
- IC50 [2]: 0.0692 µM
- IC50 [3]: 4.47 µM

SMILES: O=C1CC2(CCN([C@@H]3CCN(C(=O)c4cc(C(F)(F)F)cc(C(F)(F)F)c4)[C@H](Cc4ccccc4)C3)CC2)CN1Cc1ccccc1 [Compound 31]
- IC50 [1]: 11 µM
- IC50 [2]: 0.0724 µM
- IC50 [3]: 2.24 µM

SMILES: O=C(C1CCOC1)N1CCC2(CCN([C@@H]3CCN(C(=O)c4cc(C(F)(F)F)cc(C(F)(F)F)c4)[C@H](Cc4ccccc4)C3)CC2)C1 (stereo partly drawn) [Compound 11]
- IC50 [1]: 6.92 µM
- IC50 [2]: 0.282 µM
- IC50 [3]: > 10 µM

SMILES: O=C(c1cc(C(F)(F)F)cc(C(F)(F)F)c1)N1CCC(N2CCC3(CC2)CCN(S(=O)(=O)c2cccs2)C3)CC1Cc1ccccc1 (stereo not drawn) [Compound 9]
- IC50 [1]: > 10 µM
- IC50 [2]: 0.234 µM
- IC50 [3]: 9.55 µM

SMILES: O=C(C1CC1)N1CCC2(CC1)CCN(C1CCN(C(=O)c3cc(C(F)(F)F)cc(C(F)(F)F)c3)C(Cc3ccccc3)C1)C2 (stereo not drawn) [Compound 6]
- IC50 [1]: > 10 µM
- melting point: 160 °C
- IC50 [2]: 0.0537 µM

SMILES: O=C(c1cc(C(F)(F)F)cc(C(F)(F)F)c1)N1CC[C@H](N2CCCC3(CCCN3C(=O)C3CC3)C2)C[C@H]1Cc1ccccc1 (stereo partly drawn) [Compound 46]
- IC50 [2]: 0.204 µM
- IC50 [3]: 2.04 µM

SMILES: O=C1CC2(CCN([C@@H]3CCN(C(=O)c4cc(C(F)(F)F)cc(C(F)(F)F)c4)[C@H](Cc4ccccc4)C3)CC2)CN1CC1CC1 [Compound 24]
- IC50 [1]: 5.25 µM
- IC50 [2]: 0.126 µM
- IC50 [3]: 2.04 µM

SMILES: O=C(C1CC1)N1CC2(CCN([C@H]3CCN(C(=O)c4cc(C(F)(F)F)cc(C(F)(F)F)c4)[C@H](Cc4ccccc4)C3)CC2)c2ccccc21 [Compound 37]
- IC50 [1]: 6.76 µM
- IC50 [2]: 0.302 µM
- IC50 [3]: > 10 µM

SMILES: O=C(c1ccccc1Cl)N1CCC2(CCN([C@H]3CCN(C(=O)c4cc(C(F)(F)F)cc(C(F)(F)F)c4)[C@H](Cc4ccccc4)C3)CC2)C1 [Compound 13]
- IC50 [1]: 4.27 µM
- IC50 [2]: 0.0759 µM
- IC50 [3]: 5.13 µM

SMILES: O=C1CC2(CCN([C@@H]3CCN(C(=O)c4cc(C(F)(F)F)cc(C(F)(F)F)c4)[C@H](Cc4ccccc4)C3)CC2)CN1Cc1ccccc1Cl [Compound 35]
- IC50 [1]: 9.55 µM
- IC50 [2]: 0.182 µM
- IC50 [3]: 9.12 µM

SMILES: O=C1CC2(CCN([C@H]3CCN(C(=O)c4cc(C(F)(F)F)cc(C(F)(F)F)c4)[C@H](Cc4ccccc4)C3)CC2)CN1Cc1ccsc1 [Compound 29]
- IC50 [1]: > 10 µM
- IC50 [2]: 0.102 µM
- IC50 [3]: 5.25 µM
